Experimental data reported in US20110152263A1, “COMPOSITION AND METHOD FOR INHIBITING NOROVIRUS INFECTION” (priority 2006, published 2011).

How the values were obtained:
[1] = target: VA387 VLPs binding to the A antigen; assay: Saliva-based blocking EIA: VA387 VLP binding to type A saliva; parameters: species or system Norovirus; conditions: read-out: EC50 rVA387 A
Description: (§1) A saliva based blocking assay offers several advantages for anti-Norovirus agent screening. First, the assay is a solid phase blocking assay which is simple and suitable for large scale screening. Second, the source of HBGAs used in the assay was from healthy human volunteers, which is likely to represent the natural forms of Norovirus receptors. Third, the assay is highly sensitive and specific. Finally, a panel of saliva samples can be assembled from different individuals representing different blood types, from which the results obtained in primary screenings can be validated.
(§2) To optimize the blocking assays, we have titrated all reagents used in the assays including the VLPs, the first and second antibodies, the blocking reagent (dried cow milk), and a panel of saliva samples from different donors. […] For comparison of daily results, eight control wells containing everything but compounds were included in each plate, and the assays were considered valid when the daily OD450 variations in these wells were less than 20%. Less than 1% of the total screening runs failed in our study.
(§3) Cow milk contains a large amount of variable proteins, lipids and glycans which can easily interfere with the assay particularly when a low concentration of compounds (μM) was used in our screening. To avoid any false-negative results, the step of addition of blotto in the EIA for all screening experiments in this study was removed.
(§4) Baculovirus-expressed recombinant capsid proteins of four Norovirus strains representing four distinct receptor binding patterns were studied: Norovirus strains Norwalk, VA387, VA207, and MOH. The procedures of production of Norovirus VLPs in insect cell Spodoptera frugiperda (Sf9) have described in “Expression, self-assembly, and antigenicity of the Norwalk virus capsid protein”, J Virol 66:6527-32, Jiang et al (1992), and in “Baculovirus expression and antigenic characterization of the capsid proteins of three Norwalk-like viruses”, Arch Virol 147:119-30, Jiang et al. (2002), the disclosures of which are incorporated herein by reference. Briefly, a cDNA from the 3′ end of the genome containing the viral capsid gene (open reading frame 2 [ORF-2] was cloned from the viral RNA extracted from stool specimens. The recombinant baculoviruses carry the viral capsid genes were constructed from the cloned cDNAs using the Bac to Bac expression system according to the manufacture's instructions (Invitrogen Life Technologies, Carlsbad, Calif.). VLPs were partially purified by sucrose gradient centrifugation and stored at −80° C. Protein concentrations were determined by measuring the optical density at 280 nm (OD280) using a GeneQuant spectrophotometer (Pharmacia, Mich.) and by comparison with a bovine serum albumin standard in a sodium dodecyl sulfate-polyacrylamide gel (25). The purity of VLPs used in this study was over 90% which was determined by SDS-PAGE analysis.
(§5) Saliva samples were collected from healthy adult volunteers under an approval of human subject research protocol by the Institutional Review Board at the Cincinnati Children's Hospital Medical Center. Except for gender and race, no other personal information was collected. A total of 5-10 ml of saliva was collected from each volunteer, and the samples were processed immediately after collection. To avoid potential Norovirus-specific antibodies that may interfere in the receptor binding assays, saliva samples were boiled at 100° C. for 10 min, and then centrifuged at 10,000×g for 5 min. The clear supernatant was stored at −80° C. until use. The HBGA types of the saliva samples were determined by enzyme immune assays with monoclonal antibodies specific to human HBGAs (8). Saliva sample from a type A donor was selected for the primary screening, and a total of 25 saliva samples of known ABO, secretor, and Lewis types were selected for further studies to confirm the primary screening results. […]

[2] = target: VA387 binding to the B antigen; assay: Saliva-based blocking EIA: VA387 VLP binding to B antigen; parameters: species or system Norovirus; conditions: for EC50: VA387 VLP binding to B antigen saliva, read-out: EC50 rVA387 B; for inhibition of VA387 binding to the B antigen: one saliva sample
Description: as §1, §2, §3, §4, §5

[3] = target: VA387 binding to the H antigen; assay: Saliva-based blocking EIA: VA387 VLP binding to H antigen; parameters: species or system Norovirus; conditions: for EC50: VA387 VLP binding to H antigen saliva, read-out: EC50 rVA387 H; for inhibition of VA387 binding to the H antigen: one saliva sample
Description: as §1, §2, §3, §4, §5

[4] = test system: Norwalk virus binding to the A antigen; assay: Saliva-based blocking EIA: Norwalk virus VLP binding to A antigen; parameters: species or system Norovirus; conditions: for EC50: Norwalk VLP binding to A antigen, read-out: EC50 rNorwalk A
Description: as §1, §2, §3, §4, §5

[5] = test system: Norwalk virus binding to the H antigen; assay: Saliva-based blocking EIA: Norwalk virus VLP binding to H antigen; parameters: species or system Norovirus; conditions: for EC50: Norwalk VLP binding to H antigen, read-out: EC50 rNorwalk H
Description: as §1, §2, §3, §4, §5

[6] = target: VA207 binding to the Lewis antigens; assay: Saliva-based blocking EIA: VA207 VLP binding to Lewis antigens; parameters: species or system Norovirus; conditions: VA207 VLP binding to Lewis antigen; read-out: EC50 rVA207 Le
Description: as §1, §2, §3, §4, §5

[7] = target: MOH binding to the A antigen; assay: Saliva-based blocking EIA: MOH VLP binding to A antigen; parameters: species or system Norovirus; conditions: MOH VLP binding to type A saliva; read-out: EC50 rMOH A
Description: as §1, §2, §3, §4, §5

[8] = target: MOH binding to the B antigen; assay: Saliva-based blocking EIA: MOH VLP binding to B antigen; parameters: species or system Norovirus; conditions: MOH VLP binding to type B saliva; read-out: EC50 rMOH B
Description: as §1, §2, §3, §4, §5

[9] = test system: Human cervical carcinoma cells (HeLa); assay: MTS cytotoxicity assay, HeLa cells; format: cell-based; conditions: 3 days, average of three experiments

Structure (SMILES)	EC50 [1] [µM]	EC50 [2] [µM]	inhibition of VA387 binding to the B antigen [2]	EC50 [3] [µM]	inhibition of VA387 binding to the H antigen [3]	blocking of Norwalk virus binding to the A antigen [4]	EC50 [4] [µM]	inhibition of Norwalk virus binding to the H antigen [5]	EC50 [5] [µM]	EC50 [6] [µM]	EC50 [7] [µM]	EC50 [8] [µM]	CC50 [9] [µM]
CC(C)OC(=O)CC(=O)CSc1nc(-c2ccc(F)cc2)cc(-c2cccs2)c1C#N [Compound 10]	11.8	7.9	dose-dependant inhibition	7.5	dose-dependant inhibition	blocked	35	inhibited	19.8	> 100	> 100	> 100	
Oc1ccc(C=Nc2nccs2)c(O)c1 [Compound 7]	9.6	26	dose-dependant inhibition	7.6	dose-dependant inhibition		> 100		> 100	> 100	> 100	> 100	
O=C(C(=O)c1ccc(C(=O)c2ccc(C(=O)C(=O)c3ccc(Sc4ccccc4)cc3)cc2)cc1)c1ccc(Sc2ccccc2)cc1 [Compound 11]	12.8	35.3	dose-dependant inhibition	26.1	dose-dependant inhibition		> 100		> 100	> 100	> 100	> 100	
Cc1ccc(NC(=O)CC(c2ccccc2)c2ccccc2)cc1C [Compound 9]	11.7	> 100	did not have any inhibitory activity	47.5	revealed inhibitory activity		> 100		> 100	> 100	> 100	> 100	40.3
CCCCc1ccc(NC(=O)c2ccc(C)cc2)cc1 [Compound 12]	12.8	32.5	dose-dependant inhibition	28.2	dose-dependant inhibition	blocked	53		47.8	> 100	> 100	> 100	
Cc1cc(O)c(Sc2c(O)cc(C)cc2C(C)(C)c2ccccc2)c(C(C)(C)c2ccccc2)c1 [Compound 13]	13.6	49.5	dose-dependant inhibition	48.1	dose-dependant inhibition		> 100		> 100	> 100	> 100	> 100	70.6
CCC[n+]1cc(-c2ccccc2)nc(N2CCOCC2)n1.[I-] [Compound 1]	2.2	5.8	dose-dependant inhibition	6.8	dose-dependant inhibition	blocked	15.6	inhibited	18.9	> 100	> 100	> 100	
CCOC(=O)C1=C(C)OC(N)=C(C#N)C1c1ccc(OCc2ccc(C)cc2)c([N+](=O)[O-])c1 (stereo not shown) [Compound 2]	4.8	18.6	dose-dependant inhibition	11.9	dose-dependant inhibition	blocked	22.9	inhibited	24.5	> 100	16.5	13.3	78.6
FC(F)(F)c1ccc(N/N=C/c2cc(Br)cs2)cc1 [Compound 15]	14.1	> 100	did not have any inhibitory activity	> 100	did not have any inhibitory activity	blocked	22.5	inhibited	> 100	> 100	> 100	> 100	7.6
C=C(SCCNC(=O)NCCCCCCNC(=O)NCCSc1ccccc1O)C(C)=CC [Compound 4]	8.1	13.1	dose-dependant inhibition	14.2	dose-dependant inhibition	blocked	14.1	inhibited	22.6	> 100	> 100	> 100	
O=CC(=O)c1ccc2c(c1)Cc1cc(C(=O)C=O)ccc1-2 [Compound 6]	9.3	44.6	dose-dependant inhibition	41.1	dose-dependant inhibition		> 100		> 100	> 100	> 100	> 100	52.7
CCCOc1ccc(-c2cc(C(=O)N/N=C/c3ccc(OCC)cc3)[nH]n2)cc1 [Compound 14]	13.7	> 100	did not have any inhibitory activity	> 100	did not have any inhibitory activity		> 100		> 100	> 100	> 100	> 100	12.3
CCCc1ccc(OCc2ccc(C(=O)N/N=C/c3ccc(Cl)cc3O)o2)cc1 [Compound 5]	9.1	13.5	dose-dependant inhibition	7.2	dose-dependant inhibition	blocked	18.2	inhibited	36.3	> 100	> 100	> 100	46.7
O=C(/C=C/c1ccc(-c2cc(Cl)cc(Cl)c2)o1)c1cccs1 [Compound 8]	10.9	> 100	did not have any inhibitory activity	> 100	did not have any inhibitory activity		> 100		> 100	> 100	> 100	> 100	
